# Assay results taken from US9061030B2, “sGC stimulators” (IRONWOOD PHARMACEUTICALS, INC., priority 2010, dated 2015).
# What was measured:
# [1] = target: T1, soluble guanylate cyclase (sGC) (Homo sapiens, UniProt Q02108+Q02153); experiment: sGC-HEK-cGMP assay; assay type: cell-based; settings: HEK293 cells, 10 μM SNP, percentage of sGC activity obtained with positive control BAY 41-2272 (= 100%); for Emax at 10 µM: compound at 10 μM; for Emax at 30 µM: compound at 30 μM
# T1 construct: endogenously expressing soluble guanylate cyclase (sGC); endogenous in cells; host or cells: HEK293
# T1 sequence (Q02153 1-619): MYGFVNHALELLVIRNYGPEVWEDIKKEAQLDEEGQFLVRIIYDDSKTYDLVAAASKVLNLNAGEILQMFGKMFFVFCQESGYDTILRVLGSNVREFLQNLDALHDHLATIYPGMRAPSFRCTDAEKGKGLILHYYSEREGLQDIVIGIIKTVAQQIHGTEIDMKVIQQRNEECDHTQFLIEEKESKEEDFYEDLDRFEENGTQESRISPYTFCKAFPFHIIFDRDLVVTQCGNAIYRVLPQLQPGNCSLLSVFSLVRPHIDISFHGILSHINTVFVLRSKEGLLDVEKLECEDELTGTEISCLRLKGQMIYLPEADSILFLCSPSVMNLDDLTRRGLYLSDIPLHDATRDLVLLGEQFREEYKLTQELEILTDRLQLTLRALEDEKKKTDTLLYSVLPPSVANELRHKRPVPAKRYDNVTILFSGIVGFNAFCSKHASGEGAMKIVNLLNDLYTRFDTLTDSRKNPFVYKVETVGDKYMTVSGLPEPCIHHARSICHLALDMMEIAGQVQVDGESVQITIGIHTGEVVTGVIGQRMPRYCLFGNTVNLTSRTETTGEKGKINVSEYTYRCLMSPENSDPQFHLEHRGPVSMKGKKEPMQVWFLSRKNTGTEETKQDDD
# T1 sequence (Q02108 1-690): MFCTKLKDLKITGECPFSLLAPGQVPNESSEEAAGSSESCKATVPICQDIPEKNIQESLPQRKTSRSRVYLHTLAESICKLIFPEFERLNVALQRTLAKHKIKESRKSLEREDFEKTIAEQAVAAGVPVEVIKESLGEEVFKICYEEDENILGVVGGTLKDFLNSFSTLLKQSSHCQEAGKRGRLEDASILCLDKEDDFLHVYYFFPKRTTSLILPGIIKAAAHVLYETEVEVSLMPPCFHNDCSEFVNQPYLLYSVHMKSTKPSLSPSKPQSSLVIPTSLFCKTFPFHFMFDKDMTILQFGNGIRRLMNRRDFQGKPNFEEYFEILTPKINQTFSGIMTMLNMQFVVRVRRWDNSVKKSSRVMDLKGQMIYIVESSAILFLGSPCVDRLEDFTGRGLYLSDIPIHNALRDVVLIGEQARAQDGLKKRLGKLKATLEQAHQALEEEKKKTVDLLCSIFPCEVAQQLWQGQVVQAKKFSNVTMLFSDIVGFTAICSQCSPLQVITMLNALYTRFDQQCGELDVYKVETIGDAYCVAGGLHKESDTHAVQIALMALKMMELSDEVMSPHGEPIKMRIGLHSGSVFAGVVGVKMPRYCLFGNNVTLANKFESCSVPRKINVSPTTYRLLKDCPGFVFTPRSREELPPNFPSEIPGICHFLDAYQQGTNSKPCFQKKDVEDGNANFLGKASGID
# Method: Human embryonic kidney cells (HEK293), endogenously expressing soluble guanylate cyclase (sGC), were used to evaluate the activity of the test compounds. Compounds stimulating the sGC receptor should cause an increase in the intracellular concentration of cGMP. HEK 293 cells were seeded in Dulbecco's Modification of Eagle's Medium supplemented with fetal bovine serum (10% final) and L-glutamine (2 mM final) in a 200 μL volume at a density of 1×10^5 cells/well in a poly-D-lysine coated 96 well flat bottom plate and grown overnight at 37° C. Medium was aspirated and cells were washed with 1× Hank's Buffered Saline Salt Solution (200 μL). Cells were then incubated for 15 minutes at 37° C. with 0.5 mM 3-isobutyl-1-methylxanthine (200 μL). Test article was then added to the assay mixture (2 μL) and incubated in the presence of 10 μM Sodium Nitroprusside (SNP) at 37° C. for 10 minutes. After the 10 minute incubation, the assay mixture was aspirated and 0.1M HCl (200 μL) was added to the cells. The plate was incubated at 4° C. for 30 minutes in the 0.1M HCl to stop the reaction and lysed the cells. The plates were then centrifuged at 1,200 g for 5 minutes at room temperature. Supernatants were collected and transferred to a new flat bottom 96 well plate for analysis. Vehicle controls were carried out using DMSO (1%). A known sGC stimulator, BAY 41-2272, was used as the positive control.
# Samples were diluted with an equal volume of 1 M Ammonium Acetate (pH 7) to neutralize samples for better chromatography. A 2×cGMP standard curve was prepared in 0.1 M HCl and then diluted with an equal volume of 1 M Ammonium Acetate, with the following final concentrations in nM: 1024, 512, 256, 128, 64, 32, 16, 8, 4, 2, 1.cGMP concentrations were determined from each sample using the LC/MS conditions (Table 2 below) and calculated standard curve. EC50 values were calculated from concentration-response curves generated with GraphPad Prism Software.
# The biological activities of some of the compounds according to Formula IA or Formula IB determined with the sGC-HEK assay are summarized in Table 3 below.
# [2] = target: T2, Human soluble guanylate cyclase enzyme (hsGC) (Homo sapiens, UniProt Q02108+Q02153); experiment: Purified human sGC enzyme activity assay (with or without SNP); assay type: biochemical; settings: 30 μM compound; for sGC Enzyme Activity Increase at 30 μM with SNP: 1 μM SNP, specific activity vs DMSO and SNP; for sGC Enzyme Activity Increase at 30 μM without SNP: specific activity vs DMSO control
# T2 construct: purchased Enzo Inc. ALX-201-177
# T2 sequence (Q02153 1-619): T1 sequence (Q02153 1-619)
# T2 sequence (Q02108 1-690): T1 sequence (Q02108 1-690)
# Method: Human soluble guanylate cyclase enzyme (hsGC) obtained from Enzo Inc. (P/N: ALX-201-177) was used to evaluate the activity of test compounds. The assay reactions contained 0.1 M Tris (pH 8.0), 0.5 mg/mL BSA (pH 8.0), 2 mM DTT, 2 mM MgCl2, 300 μM GTP, 1 mM 3-isobutyl-1-methylxanthine (IBMX) and 5 ng human soluble guanylate cyclase enzyme. Test compounds in DMSO were then added (2 μL, 10 or 30 μM final concentration) and incubated (200 μL, 96-well plate format) at 37° C. for 30 minutes. The controls were carried out using 2 μL DMSO. After the 30 minute incubation, the reaction was stopped with the addition of 200 μL of cold methanol. The plate was then centrifuged at 3,200 rpm for 10 minutes at room temperature. Supernatants (200 μL) were collected and transferred to a new 96 well plate for analysis.
# An 8 point cGMP (Sigma-Aldrich P/N: G6129) standard curve was prepared in assay buffer ranging from 0.156-20 μM. Samples for the cGMP standard curve were then diluted with an equal volume of methanol resulting in final cGMP concentrations of 0.078-10 μM.
# The cGMP standard curve was generated using GraphPad Prism Software.
# Calculations: Specific Activity was determined by the amount of cGMP formed (nmoles) per mg of sGC per min. Enzyme activity “fold-change” was calculated by dividing the Specific Activity for a test compound by the Specific Activity of DMSO control.
# The enzymatic activity fold-change of the purified human sGC enzyme determined in the presence of each of the test compounds individually at 10 or 30 μm without the addition of sodium nitroprusside (SNP), a nitric oxide donor, is presented in Table 5.
# Enzyme assays were also performed as described above, but in the presence of 1 μM sodium nitroprusside (SNP). Enzymatic activity fold-changes are reported for selected test compounds in the presence of both SNP and the test compound. These were calculated by dividing the specific activity (activity increase) for the test compound dissolved in DMSO and SNP over the specific activity for the mixture of DMSO and SNP.
SMILES,Emax at 10 µM [1] [%],Emax at 30 µM [1] [%],sGC Enzyme Activity Increase at 30 μM with SNP [2],sGC Enzyme Activity Increase at 30 μM without SNP [2]
"Fc1ccccc1Cn1nc(-c2ccccn2)nc1-n1ccnc1 [Compound I-49, 2-(1-(2-fluorobenzyl)-5-(1H-imidazol-1-yl)-1H-1,2,4-triazol-3-yl)pyridine]",0 to 5,5 to 10,B (B = 1 to <2 fold increase),B (B = 1 to <2 fold increase)
Nc1ccnc(-c2nc(-c3nccs3)nn2Cc2ccccc2F)c1 [Compound I-47],0 to 5,0 to 5,B (B = 1 to <2 fold increase),B (B = 1 to <2 fold increase)
Fc1ccccc1Cn1nc(-c2cscn2)nc1-c1ccccn1 [Compound I-5],5 to 10,10 to 20,C (C = 2 to <5 fold increase),B (B = 1 to <2 fold increase)
Fc1ccccc1Cn1nc(-c2ncccn2)nc1-c1ncco1 [Compound I-9],0 to 5,5 to 10,B (B = 1 to <2 fold increase),C (C = 2 to <5 fold increase)
"Fc1ccccc1Cn1nc(-c2cocn2)nc1-c1ccccn1 [Compound I-13, 4-(1-(2-fluorobenzyl)-5-(pyridin-2-yl)-1H-1,2,4-triazol-3-yl)oxazole]",0 to 5,0 to 5,B (B = 1 to <2 fold increase),C (C = 2 to <5 fold increase)
"Fc1ccccc1Cn1nc(-c2ccccn2)nc1Br [Compound I-16, 2-(5-bromo-1-(2-fluorobenzyl)-1H-1,2,4-triazol-3-yl)pyridine]",0 to 5,5 to 10,C (C = 2 to <5 fold increase),B (B = 1 to <2 fold increase)
"Fc1ccccc1Cn1nc(-c2ccccn2)nc1-c1nnco1 [Compound I-42, 2-(1-(2-fluorobenzyl)-3-(pyridin-2-yl)-1H-1,2,4-triazol-5-yl)-1,3,4-oxadiazole]",0 to 5,5 to 10,C (C = 2 to <5 fold increase),B (B = 1 to <2 fold increase)
"Nc1cccc(-c2nc(-c3nccs3)n(Cc3ccccc3F)n2)n1 [Compound I-14, 6-(1-(2-fluorobenzyl)-5-(thiazol-2-yl)-1H-1,2,4-triazol-3-yl)pyridin-2-amine]",5 to 10,10 to 20,C (C = 2 to <5 fold increase),B (B = 1 to <2 fold increase)

# The remaining lines, values ahead:
Emax at 10 µM [1] [%],Emax at 30 µM [1] [%],sGC Enzyme Activity Increase at 30 μM with SNP [2],sGC Enzyme Activity Increase at 30 μM without SNP [2],SMILES
10 to 20,5 to 10,C (C = 2 to <5 fold increase),A (A = no increase to <1 fold increase),Fc1ccccc1Cn1nc(-c2cocn2)nc1-c1nccs1 [Compound I-62]
20 to 40,40 to 60,D (D = 5 to <10 fold increase),C (C = 2 to <5 fold increase),"Fc1ccccc1Cn1nc(-c2cc(Br)ccn2)nc1-c1cocn1 [Compound I-54, 4-(3-(4-bromopyridin-2-yl)-1-(2-fluorobenzyl)-1H-1,2,4-triazol-5-yl)oxazole]"
80 to 100,80 to 100,E (E = 10 to <20 fold increase),D (D = 5 to <10 fold increase),"Fc1ccccc1Cn1nc(-c2cc(N3CCOCC3)ccn2)nc1-c1nccs1 [Compound I-65, 4-(2-(1-(2-fluorobenzyl)-5-(thiazol-2-yl)-1H-1,2,4-triazol-3-yl)pyridin-4-yl)morpholine]"
10 to 20,20 to 40,D (D = 5 to <10 fold increase),B (B = 1 to <2 fold increase),"COC(=O)Nc1c(N)nc(-c2nc(-c3nccs3)n(Cc3ccccc3F)n2)nc1N [Compound I-60, methyl 4,6-diamino-2-(1-(2-fluorobenzyl)-5-(thiazol-2-yl)-1H-1,2,4-triazol-3-yl)pyrimidin-5-ylcarbamate]"
40 to 60,40 to 60,,,"Nc1ccnc(-c2nc(-c3cocn3)n(Cc3ccccc3F)n2)c1 [Compound I-66, 2-(1-(2-fluorobenzyl)-5-(oxazol-4-yl)-1H-1,2,4-triazol-3-yl)pyridin-4-amine]"
10 to 20,5 to 10,,,"NC(=O)c1ccnc(-c2nc(-c3nccs3)n(Cc3ccccc3F)n2)c1 [Compound I-64, 2-(1-(2-fluorobenzyl)-5-(thiazol-2-yl)-1H-1,2,4-triazol-3-yl)isonicotinamide]"
